Where two headings read alike, the source gives them in different places.
How the values were obtained:
[1] = In vitro release of lidocaine from silicone tube devices in water at about 37° C.; type: physicochemical; settings: silicone tubes about 3 cm, payload about 60 mg
Description: A study was performed to determine the feasibility of delivering drug through the wall of a drug reservoir via diffusion. Devices were formed form silicone tubes having an inner diameter of about 0.060 inches, an outer diameter of 0.076 inches, and a length of about 3 cm. […] Some of the devices included an aperture formed through the tube wall, the aperture having a diameter of 150 μm. […] The devices were tested in vitro in water at about 37° C. […] Another study was performed to investigate the feasibility of delivering drug from a device through both a wall of a drug reservoir and from an aperture in the wall of the drug reservoir. Devices were formed form silicone tubes having a length of about 3 cm. […] The devices were tested in vitro in water at about 37° C.

IC patients = settings: cited from earlier work

Row | Compound | release from silicone tube with and without apertures [1] | mean pain score (IC patients; immediately following treatment, prior to treatment 6.0) | duration of effect (IC patients; single lidocaine instillation) | mean pain score (IC patients; the next day) | mean pain score (IC patients; with a second instillation)
1 | CCN(CC)CC(=O)Nc1c(C)cccc1C [lidocaine base] | can be released from a silicone tube without any apertures | – | – | – | –
2 | CCN(CC)CC(=O)Nc1c(C)cccc1C [lidocaine] | – | 1.8 | approximately 24 hours | 3.7 | 1.2
